Tested on: NOMO1
Assay: cell viability relative to DMSO control; higher = less cytotoxic
Details: 48 h
Method in brief: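 NOMO1 or SEM cells were plated at 500 cells/well and P12-Ichikawa cells at 1000 cells/well in 1536-well plates (5 μl), after each leukemia line had been adapted for at least four passages in each medium. Pin dosing delivered library compounds in DMSO at 11 threefold concentrations, 47 μM to 0.79 nM. CellTiter-Glo One luminescence was read after 48 h at 37°C. Viability is reported as a per-plate percentage of DMSO wells, with cell-free wells as background.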

[1] = RPMI 5 mM glucose + 10% FBS, 0.000781 µM
[2] = RPMI 5 mM glucose + 10% FBS, 0.00234 µM
[3] = RPMI 5 mM glucose + 10% FBS, 0.00702 µM
[4] = RPMI 5 mM glucose + 10% FBS, 0.0211 µM
[5] = RPMI 5 mM glucose + 10% FBS, 0.0632 µM
[6] = RPMI 5 mM glucose + 10% FBS, 0.19 µM
[7] = RPMI 5 mM glucose + 10% FBS, 0.569 µM
[8] = RPMI 5 mM glucose + 10% FBS, 1.71 µM
[9] = RPMI 5 mM glucose + 10% FBS, 5.12 µM
[10] = RPMI 5 mM glucose + 10% FBS, 15.4 µM
[11] = RPMI 5 mM glucose + 10% FBS, 46.1 µM
[12] = HPLM + 10% dialyzed FBS, 0.000781 µM
[13] = HPLM + 10% dialyzed FBS, 0.00234 µM
[14] = HPLM + 10% dialyzed FBS, 0.00702 µM
[15] = HPLM + 10% dialyzed FBS, 0.0211 µM
[16] = HPLM + 10% dialyzed FBS, 0.0632 µM
[17] = HPLM + 10% dialyzed FBS, 0.19 µM
[18] = HPLM + 10% dialyzed FBS, 0.569 µM
[19] = HPLM + 10% dialyzed FBS, 1.71 µM
[20] = HPLM + 10% dialyzed FBS, 5.12 µM
[21] = HPLM + 10% dialyzed FBS, 15.4 µM
[22] = HPLM + 10% dialyzed FBS, 46.1 µM
[23] = RPMI 5 mM glucose + 10% dialyzed FBS, 0.000781 µM
[24] = RPMI 5 mM glucose + 10% dialyzed FBS, 0.00234 µM
[25] = RPMI 5 mM glucose + 10% dialyzed FBS, 0.00702 µM
[26] = RPMI 5 mM glucose + 10% dialyzed FBS, 0.0211 µM
[27] = RPMI 5 mM glucose + 10% dialyzed FBS, 0.0632 µM
[28] = RPMI 5 mM glucose + 10% dialyzed FBS, 0.19 µM
[29] = RPMI 5 mM glucose + 10% dialyzed FBS, 0.569 µM
[30] = RPMI 5 mM glucose + 10% dialyzed FBS, 1.71 µM
[31] = RPMI 5 mM glucose + 10% dialyzed FBS, 5.12 µM
[32] = RPMI 5 mM glucose + 10% dialyzed FBS, 15.4 µM
[33] = RPMI 5 mM glucose + 10% dialyzed FBS, 46.1 µM

Structure (SMILES)	cell viability [1]	cell viability [2]	cell viability [3]	cell viability [4]	cell viability [5]	cell viability [6]	cell viability [7]	cell viability [8]	cell viability [9]	cell viability [10]	cell viability [11]	cell viability [12]	cell viability [13]	cell viability [14]	cell viability [15]	cell viability [16]	cell viability [17]	cell viability [18]	cell viability [19]	cell viability [20]	cell viability [21]	cell viability [22]	cell viability [23]	cell viability [24]	cell viability [25]	cell viability [26]	cell viability [27]	cell viability [28]	cell viability [29]	cell viability [30]	cell viability [31]	cell viability [32]	cell viability [33]
C=CCc1cccc(/C=N/NC(=O)CN2CCN(Cc3ccccc3)CC2)c1O	120%	115%	108%	119%	116%	109%	114%	100%	115%	96.5%	8.9%																						
C/C(O)=C(\C#N)C(=O)Nc1cc(Br)ccc1Br	96.4%	93.7%	94.6%	99.2%	94%	92.5%	96.2%	90%	83%	88%	82.3%	111%	119%	98.3%	115%	88.3%	104%	98.3%	96.6%	98.8%	90.7%	78.3%	95.3%	96%	102%	102%	94.1%	102%	90%	83.4%	82.5%	93.3%	78%
CC(C)c1ccc(Cn2ccc3c4c(N)nc(NC5CC5)nc4ccc32)cc1	121%	116%	125%	120%	120%	130%	123%	113%	100%	30.9%	4.9%	116%	114%	116%	101%	126%	123%	70.2%	53.1%	38.8%	39.3%	4.39%	110%	109%	104%	107%	133%	124%	128%	84.7%	50.3%	49.8%	3.66%
CC(C)c1cnn2c(NCc3ccccc3)cc(NCCCCCCN)nc12	115%	107%	117%	121%	109%	122%	112%	114%	116%	106%	101%												115%	116%	104%	125%	119%	118%	114%	107%	110%	101%	110%
C[C@]12CC[C@@H]3c4ccc(O)cc4CC[C@H]3[C@@H]1C[C@@H](O)[C@@H]2O	116%	114%	106%	114%	114%	107%	123%	117%	118%	118%	115%												115%	121%	129%	125%	120%	110%	114%	113%	110%	105%	95.9%
COC1=CC=C(C=C1O)C/2=C/C(=O)C3=C(O2)C=C(O)C=C3O	96.4%	86%	82.8%	87.4%	94.5%	93.7%	96.8%	88.2%	95%	105%	102%	93.3%	108%	108%	108%	114%	100%	95.3%	98.4%	94.4%	93.9%	110%	91.3%	90.5%	85.5%	100%	105%	89.8%	83.6%	89.5%	82.5%	92.5%	98.2%
COc1cccc([C@@H](C)NCCCc2ccccc2Cl)c1	84.4%	86.1%	87.2%	97.5%	93.9%	88%	94.7%	86.1%	94.8%	94.6%	101%	83%	104%	83.2%	111%	91.5%	113%	95.6%	110%	103%	95.9%	110%	86.2%	100%	92.3%	84.4%	100%	101%	87.9%	90%	111%	106%	104%
CC(C)c1cc(C(=O)N2Cc3ccc(CN4CCN(C)CC4)cc3C2)c(O)cc1O	97.1%	107%	105%	110%	105%	117%	62.2%	21.3%	15.9%	17.5%	14.8%	125%	118%	109%	108%	126%	128%	70.8%	24%	20.3%	19.5%	19.9%	119%	120%	111%	117%	119%	127%	71.7%	33.9%	20.5%	20.1%	17.6%
Cc1cnc(C(=O)O)c[n+]1[O-]	109%	122%	110%	127%	129%	115%	101%	118%	105%	103%	112%																						
C[S+](=O)([O-])c1cccc(CNc2nc(Nc3ccc4c(c3)CCC(=O)N4)ncc2C(F)(F)F)c1	99.6%	113%	116%	115%	108%	114%	113%	100%	93.3%	91.6%	53.9%												107%	109%	114%	129%	99.9%	115%	105%	111%	108%	86.1%	58.9%
C[C@H]1[C@@H](C(=O)C[C@H]2O[C@@H]3O[C@]4(C)CC[C@H]5[C@H](C)CC[C@@H]([C@H]2C)[C@@]35OO4)O[C@@H]2O[C@]3(C)CC[C@H]4[C@H](C)CC[C@@H]1[C@@]24OO3	103%	117%	102%	99.4%	110%	110%	103%	109%	105%	58.4%	24.8%	114%	121%	122%	102%	127%	115%	116%	102%	111%	67%	21%	114%	131%	105%	120%	122%	107%	93.9%	95.2%	96.2%	69%	24.6%
O=C(Nc1ncc(SCCN2CCCC2)s1)[C@]1(c2ccc([S+](=O)([O-])C3CC3)cc2)C[C@H]1C1CCCCC1	125%	127%	123%	111%	123%	113%	107%	128%	108%	104%	25.1%	111%	136%	110%	123%	120%	106%	105%	102%	103%	70.2%	5.84%	118%	117%	118%	126%	124%	111%	114%	117%	110%	94.2%	17.4%
Oc1cccc(-c2nc(N3CCOCC3)c3oc4ncccc4c3n2)c1	109%	113%	116%	123%	112%	108%	104%	87.4%	128%	124%	122%	121%	92.1%	117%	91.8%	92.3%	107%	115%	102%	129%	96.4%	103%	120%	106%	125%	98.9%	110%	102%	80.4%	77.7%	109%	106%	126%
CN[C@@H]1Cc2cccc3[nH]c(=O)n(c23)C1	112%	113%	118%	110%	107%	105%	108%	106%	105%	102%	103%																						
Cc1ccc([S+](=O)([O-])Nc2nc3ccccc3nc2Nc2ccc3nsnc3c2)cc1	89.2%	94.4%	89.2%	108%	101%	119%	96.7%	78.5%	14%	11.5%	7.49%	97.3%	106%	114%	104%	116%	110%	111%	72.5%	21.3%	18%	13.1%	84.8%	88.7%	106%	91.8%	111%	99.2%	92.8%	96.1%	20.7%	15.9%	12.7%
C[C@]12CC[C@H]3[C@@H](CCC/4=C/C(=O)CC[C@]34C)[C@@H]1CC[C@@H]2O	109%	118%	134%	143%	146%	145%	129%	134%	147%	153%	147%	93.4%	113%	126%	111%	136%	126%	123%	111%	130%	127%	137%	107%	121%	135%	137%	142%	141%	147%	129%	145%	138%	143%
CC(C)C[C@H](NC(=O)CNC(=O)c1cc(Cl)ccc1Cl)B(O)O	81.1%	88.8%	100%	16.8%	104%	86.2%	19.7%	7.24%	5.18%	4.14%	2.67%	88.3%	104%	106%	33.1%	125%	92%	20.4%	9.39%	4.5%	4.57%	4.02%	98.5%	94.2%	108%	33.5%	96.9%	107%	28.3%	8.85%	5.16%	4.61%	2.91%
Cc1cc(Nc2nc(N[C@@H](C)c3ccc(F)cc3)c(C#N)cc2F)n[nH]1	88.9%	94.7%	91.2%	99.2%	90.9%	81.2%	89.5%	83%	20.7%	36.1%	45.5%	108%	101%	109%	113%	93.9%	99.9%	114%	92.3%	36.4%	68.8%	58.6%	79.8%	104%	104%	103%	96.8%	97.5%	98.7%	91.1%	28.3%	36.1%	55%

Source: the supplement of paper PMC11451515
